Measurements as given in patent US8546405B2, “Anti-viral compounds” (Abbott Laboratories, priority 2008, dated 2013).

Tested on: replicon 1b-Con1
Experiment: HCV subgenomic replicon luciferase reporter assay, replicon 1b-Con1
Format: cell-based, Hepatitis C virus (HCV) genotype 1b-Con1
Conditions: Hepatitis C virus
[1] = 72 h, stable subgenomic replicon cell line, luciferase reporter, three days incubation, values given as ranges or bound
[2] = same test, cell prints lower limit in nM and upper limit in μM

Compound	IC50 [1]	IC50 [2]
CC(C)c1ccc2c(Nc3cc(C(=O)NNC(=O)c4ccc(Sc5ccc(N)cc5)c(Nc5ncnc6nc(C(C)C)ccc56)c4)ccc3Sc3ccc(N)cc3)ncnc2n1 [Example 1, 4-(4-aminophenylthio)-N′-(4-(4-aminophenylthio)-3-(7-isopropylpyrido[2,3-d]pyrimidin-4-ylamino)benzoyl)-3-(7-isopropylpyrido[2,3-d]pyrimidin-4-ylamino)benzohydrazide]	0.1 to 10 nM	–
CC(C)c1ccc2c(Nc3cc(NC(=O)c4ccc(Sc5ccc(N)cc5)c(Nc5ncnc6nc(C(C)C)ccc56)c4)ccc3Sc3ccc(N)cc3)ncnc2n1 [Example 2, 4-(4-aminophenylthio)-N-(4-(4-aminophenylthio)-3-(7-isopropylpyrido[2,3-d]pyrimidin-4-ylamino)phenyl)-3-(7-isopropylpyrido[2,3-d]pyrimidin-4-ylamino)benzamide]	0.1 to 10 nM	–
CC(C)c1ccc2c(Nc3cc(NC(=O)Nc4ccc(Sc5ccc(N)cc5)c(Nc5ncnc6nc(C(C)C)ccc56)c4)ccc3Sc3ccc(N)cc3)ncnc2n1 [Example 3, 1,3-bis(4-(4-aminophenylthio)-3-(7-isopropylpyrido[2,3-d]pyrimidin-4-ylamino)phenyl)urea]	10 to 100 nM	–
CC(C)c1ccc2c(Nc3cc(-c4ccc(-c5ccc(Sc6ccc(N)cc6)c(Nc6ncnc7nc(C(C)C)ccc67)c5)cc4)ccc3Sc3ccc(N)cc3)ncnc2n1 [Example 4, 4,4″-(4-amino-phenylsulfanyl)-N*3*,N*3″*-(7-isopropylpyrido[2,3-d]pyrimidin-4-yl)-[1,1′;4′,1″]terphenyl-3,3″-diamine]	0.1 to 10 nM	–
CC(C)c1ccc2c(Nc3cc(C(=O)NCCNC(=O)c4ccc(Sc5ccc(N)cc5)c(Nc5ncnc6nc(C(C)C)ccc56)c4)ccc3Sc3ccc(N)cc3)ncnc2n1 [Example 5, N,N′-(ethane-1,2-diyl)bis(4-(4-aminophenylthio)-3-(7-isopropylpyrido[2,3-d]pyrimidin-4-ylamino)benzamide)]	0.1 to 10 nM	–
CC(C)c1ccc2c(Nc3cc(C(=O)N4CCN(C(=O)c5ccc(Sc6ccc(N)cc6)c(Nc6ncnc7nc(C(C)C)ccc67)c5)CC4)ccc3Sc3ccc(N)cc3)ncnc2n1 [Example 6, piperazine-1,4-diylbis((4-(4-aminophenylthio)-3-(7-isopropylpyrido[2,3-d]pyrimidin-4-ylamino)phenyl)methanone)]	0.1 to 10 nM	–
CC(C)c1ccc2c(Nc3cccc(C(=O)Nc4ccc(Sc5ccc(N)cc5)c(Nc5ncnc6nc(C(C)C)ccc56)c4)c3)ncnc2n1 [Example 7, N-(4-(4-aminophenylthio)-3-(7-isopropylpyrido[2,3-d]pyrimidin-4-ylamino)phenyl)-3-(7-isopropylpyrido[2,3-d]pyrimidin-4-ylamino)benzamide]	–	100 to 10000 nM
CC(C)c1ccc2c(Nc3cc(C#Cc4ccc(Sc5ccc(N)cc5)c(Nc5ncnc6nc(C(C)C)ccc56)c4)ccc3Sc3ccc(N)cc3)ncnc2n1 [Example 8, N,N′-(5,5′-(ethyne-1,2-diyl)bis(2-(4-aminophenylthio)-5,1-phenylene))bis(7-isopropylpyrido[2,3-d]pyrimidin-4-amine)]	< 0.1 nM	–
CC(C)c1ccc2c(Nc3cc(CN(Cc4ccc(Sc5ccc(N)cc5)c(Nc5ncnc6nc(C(C)C)ccc56)c4)c4ccccc4)ccc3Sc3ccc(N)cc3)ncnc2n1 [Example 9]	< 0.1 nM	–
CC(C)c1ccc2c(Nc3cc(C(=O)NCCNC(=O)c4ccc(Sc5ccccc5)c(Nc5ncnc6nc(C(C)C)ccc56)c4)ccc3Sc3ccccc3)ncnc2n1 [Example 10]	–	100 to 10000 nM
COc1ccc(CN(Cc2ccc(Sc3ccc(N)cc3)c(Nc3ncnc4nc(C(C)C)ccc34)c2)Cc2ccc(Sc3ccc(N)cc3)c(Nc3ncnc4nc(C(C)C)ccc34)c2)c(OC)c1 [Example 11]	0.1 to 10 nM	–
CC(C)c1ccc2c(Nc3cc(-c4ccc(-c5ccc(Sc6ccc(N)cc6)c(Nc6ncnc7nc(C(C)C)ccc67)c5)nc4)ccc3Sc3ccc(N)cc3)ncnc2n1 [Example 12]	0.1 to 10 nM	–
Cc1ccc2c(Nc3cc(-c4ccc(-c5ccc(Sc6ccc(N)cc6)c(Nc6ncnc7nc(C)ccc67)c5)cc4)ccc3Sc3ccc(N)cc3)ncnc2n1 [Example 13]	0.1 to 10 nM	–
CC(C)c1ccc2c(Nc3cc(C#Cc4ccc(Sc5ccc(F)cc5)c(Nc5ncnc6nc(C(C)C)ccc56)c4)ccc3Sc3ccc(F)cc3)ncnc2n1 [Example 14]	0.1 to 10 nM	–
CC(C)c1ccc2c(Nc3cc(C#Cc4ccc(Sc5ccccc5)c(Nc5ncnc6nc(C(C)C)ccc56)c4)ccc3Sc3ccccc3)ncnc2n1 [Example 15]	0.1 to 10 nM	–
CC(C)c1ccc2c(Nc3cc(C#Cc4ccc(Sc5ccc(N(C)C)cc5)c(Nc5ncnc6nc(C(C)C)ccc56)c4)ccc3Sc3ccc(N(C)C)cc3)ncnc2n1 [Example 16]	0.1 to 10 nM	–
CC(C)c1ccc2c(Nc3cc(C#Cc4ccc(Oc5ccccc5)c(Nc5ncnc6nc(C(C)C)ccc56)c4)ccc3Oc3ccccc3)ncnc2n1 [Example 17]	0.1 to 10 nM	–
CC(C)c1ccc2c(Nc3cc(C#Cc4ccc(Sc5ccc(O)cc5)c(Nc5ncnc6nc(C(C)C)ccc56)c4)ccc3Sc3ccc(O)cc3)ncnc2n1 [Example 18]	0.1 to 10 nM	–
CC(C)c1ccc2c(Nc3cc(C#Cc4ccc(Sc5cccc(N)c5)c(Nc5ncnc6nc(C(C)C)ccc56)c4)ccc3Sc3cccc(N)c3)ncnc2n1 [Example 19]	0.1 to 10 nM	–
CC(C)c1ccc2c(Nc3cc(C#Cc4ccc(Oc5ccc(N)cc5)c(Nc5ncnc6nc(C(C)C)ccc56)c4)ccc3Oc3ccc(N)cc3)ncnc2n1 [Example 20]	0.1 to 10 nM	–
Cc1ccc2c(Nc3cc(C#Cc4ccc(Sc5ccc(N)cc5)c(Nc5ncnc6nc(C)ccc56)c4)ccc3Sc3ccc(N)cc3)ncnc2n1 [Example 21]	0.1 to 10 nM	–
Cc1ccc2c(Nc3cc(C#Cc4ccc(Sc5ccc(F)cc5)c(Nc5ccnc6nc(C)ccc56)c4)ccc3Sc3ccc(F)cc3)ccnc2n1 [Example 22]	10 to 100 nM	–
CC(C)c1ccc2c(Nc3cc(C#Cc4ccc(Oc5ccc(CO)cc5)c(Nc5ncnc6nc(C(C)C)ccc56)c4)ccc3Oc3ccc(CO)cc3)ncnc2n1 [Example 23]	0.1 to 10 nM	–
CC(C)c1ccc2c(Nc3cc(CN(Cc4ccc(Sc5ccc(N)cc5)c(Nc5ncnc6nc(C(C)C)ccc56)c4)C(C)C)ccc3Sc3ccc(N)cc3)ncnc2n1 [Example 24]	0.1 to 10 nM	–
CC(C)c1ccc2c(Nc3cc(C#Cc4ccc(Oc5ccc(O)cc5)c(Nc5ncnc6nc(C(C)C)ccc56)c4)ccc3Oc3ccc(O)cc3)ncnc2n1 [Example 25]	0.1 to 10 nM	–
CC(C)c1ccc2c(Nc3cc(C#Cc4ccc(Sc5ccc(OCc6ccccc6)cc5)c(Nc5ncnc6nc(C(C)C)ccc56)c4)ccc3Sc3ccc(OCc4ccccc4)cc3)ncnc2n1 [Example 26]	0.1 to 10 nM	–
COc1ccc(Sc2ccc(CN(Cc3ccc(Sc4ccc(OC)cc4)c(Nc4ccnc5nc(C)ccc45)c3)C(C)C)cc2Nc2ccnc3nc(C)ccc23)cc1 [Example 28]	10 to 100 nM	–
